In patent US20100144683A1, “METHODS FOR GENERATING MAMMALIAN MODELS OF ATOPIC DISEASES, AND SCREENING FOR THEIR TREATMENT” (ASSOCIATION POUR LA RECHERCHE A L'IGBMC (ARI), priority 2006, published 2010):
Entries after “also recorded” stand apart in the source; their conditions may differ.

Experiments:
[1] = system: serum IgE and IgG; assay: Serum IgE and IgG levels (ELISA); type: in vivo, mouse; conditions: MC903 topically for 16 days on ears
[2] = system: TSLP; assay: TSLP RNA level (Q-PCR) in skin and organs after topical application of NR agonists; type: in vivo, mouse
Experimental: Four nmoles of ligands dissolved in ethanol were topically applied to whole ears of 6-8-week-old female CD1 wildtype (WT) mice for 4 consecutive days (D1 to D4), and TSLP RNA levels were determined on day 5.
(§1) 1α,25-(OH)2D3, or MC903 and ethanol (vehicle) were applied to WT mouse right and left ears, respectively. Two shaved areas (1 cm^2 each) of dorsal skin were also treated with MC903 or ethanol.

[3] = target: T1, RXR/VDR heterodimers (Mus musculus, UniProt P48281); assay: MC903 topical treatment of RXRαβep-/- mice, TSLP RNA (Q-PCR); type: in vivo; conditions: D4, versus RXRαβ CT
T1 construct: from tissue; host or cells: mouse ear skin (epidermal keratinocytes), topical treatment in vivo
T1 sequence (P48281 1-422): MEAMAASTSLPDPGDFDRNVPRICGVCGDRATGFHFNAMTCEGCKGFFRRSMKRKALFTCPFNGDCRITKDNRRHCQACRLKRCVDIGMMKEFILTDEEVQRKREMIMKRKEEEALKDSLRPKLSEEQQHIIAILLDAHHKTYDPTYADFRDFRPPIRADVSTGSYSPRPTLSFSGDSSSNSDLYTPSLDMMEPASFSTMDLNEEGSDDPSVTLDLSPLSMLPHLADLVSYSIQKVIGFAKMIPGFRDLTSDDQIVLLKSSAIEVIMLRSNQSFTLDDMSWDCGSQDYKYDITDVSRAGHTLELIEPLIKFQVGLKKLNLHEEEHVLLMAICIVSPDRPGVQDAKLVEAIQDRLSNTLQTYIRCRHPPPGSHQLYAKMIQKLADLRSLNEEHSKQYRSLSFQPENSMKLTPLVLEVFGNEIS
Text: To examine whether the effect of MC903 was transduced through RXR/VDR heterodimers, ears of RXRαβ^ep−/− mice (tamoxifen-treated K14-Cre-ERT2^(tg/0)/RXRαβ^L2/L2/RXRβ^L2/L2; LI et al., 2005, abovementioned), as well as their control littermates (RXRαβ CT), were topically-treated with MC903.

[4] = system: VDR; assay: MC903 topical treatment of VDR control, VDRep-/- and VDR-/- mice; type: in vivo, mouse
Text: To investigate whether the MC903-induced TSLP expression and appearance of an AD-like skin inflammation were mediated through VDR, MC903 was topically applied on ears of “floxed” VDR control (CT) mice (VDR^L2/L2 mice, in which both VDR alleles bear LoxP sites) and of their VDR^ep−/− littermates [K14-Cre^(tg/0)/VDR^L2/L2 mice in which the VDR alleles are selectively ablated in keratinocytes and which were obtained by crossing)K14-Cre^(tg/0) transgenic mice (LI et al., Development, vol. 128, p: 675-688, 2001) with floxed VDR^L2/L2 mice (our unpublished data)].
The FIGS. 3 a and b show the appearance of MC903-treated ears of VDR control (CT) (a) and VDR^ep−/− mice (b) at D17. White arrows in (a) points to lesioned skin.
The FIGS. 3 c and d show Hematoxylin and eosin-stained ear sections. Yellow arrows in inset of (c) point to three of many eosinophils (red cytoplasmic staining) in MC903-treated CT skin. Black arrows point to the dermal/epidermal junction. hf, hair follicle; u, utriculi (resulting from hair follicle degeneration in VDR^ep−/− mice). (Scale bar, 50 μm).

[5] = system: TSLP; assay: Serum TSLP levels after topical application; type: in vivo, mouse; conditions: MC903 topical; D2-D4, undetectable at D0
Experimental: as §1

[6] = system: eosinophils; assay: Blood and tissue eosinophilia; type: in vivo, mouse; conditions: MC903-treated mice
Text: FIG. 2 s show the hematoxylin and eosin-stained sections of ear draining lymph node and liver of ethanol- and MC903-treated mice at D17. Yellow arrows point to three of many eosinophils (red cytoplasmic staining) in sections of lymph node and liver of MC903-treated mice. (Scale bars, 50 μm).

[7] = system: TSLP; assay: TSLP immunohistochemistry on ear and dorsal skin sections; type: in vivo, mouse; conditions: MC903-treated ear and dorsal skin; D4
Text: The white arrowhead points to autofluorescent erythrocytes, and white arrows point to the dermal/epidermal junction. (Scale bar, 50 μm).

[8] = system: OVA-induced asthma mouse model; assay: Ovalbumin (OVA)-induced asthma mouse model with ear topical MC903; type: in vivo; conditions: MC903 1.125 nmole on each ear every other day, day 0 to 21, day 22
Experimental: An experimental ovalbumin (OVA)-induced asthma mouse model was used. Mice were intraperitoneally injected with 50 μg OVA adsorbed on 2 mg aluminium hydroxide (Alum) on days 0 and 7, and were then challenged on days 18, 19, 20 and 21 by intranasal instillations of 10 μg OVA. As controls, mice were intraperitoneally injected with Alum, and receive intranasal instillations of saline. These mice were topically treated with either ethanol (as a control) or MC903 (1.125 nmole) on each ear every other day from day 0 to day 21 to generate an ear AD. Assessment of respiratory function, collection of bronchoalveolar lavage (BAL) and lung were performed on day 22. […] Aerosolized saline was used as control.

[9] = system: ears of CD1 wildtype (WT) mice; assay: AD-like phenotype upon long-term ear topical treatment (appearance, histology, IHC); type: in vivo, mouse
Text: White arrows point to the dermal/epidermal junction. FIGS. 2a and b show the ear appearance at day 17 after ethanol and MC903 treatment, respectively. FIGS. 2c and d show hematoxylin and eosin-stained (HE) ear sections of ethanol- and MC903-treated mice at day 17, respectively. Eosinophil-selective cytoplasmic red staining is pointed by arrows in the inset of (d). FIG. 2 u show hematoxylin and eosin-stained (HE) ear sections of ethanol- and 1α,25(OH)2D3 treated mice every second day, at a dose of 0.25 nmole, at day 18 (D18). FIGS. 2 e to n show the result of IHC performed on ear sections from ethanol- or MC903-treated mice at D17, with antibodies against GR1 (e and f), CD3 (g and h), CD4 (i and j), CD8 (k and l) and CD11c (m and n). Yellow color corresponds to staining of antibodies, whereas blue corresponds to DAPI staining of nuclei. FIGS. 2 o and p show the Toluidin blue (TB)-staining of ear sections. Red arrows point to one of the mast cells with intense blue color in the dermis.

[10] = system: cytokine RNA; assay: Cytokine RNA levels (Q-PCR) in treated ears; type: in vivo, mouse; conditions: MC903 4 nmoles daily on ears; D16
[11] = Calcemia and overall health upon topical application; type: in vivo; conditions: MC903 4 nmoles daily or 1α,25(OH)2D3 0.25 nmole every second day on ears, 16 days
Experimental: 1α,25-(OH)2D3, or MC903 and ethanol (vehicle) were applied to WT mouse right and left ears, respectively. Two shaved areas (1 cm^2 each) of dorsal skin were also treated with MC903 or ethanol. […]

[12] = system: CYP24A1; assay: CYP24A1 RNA level (Q-PCR) in MC903-treated ear; type: in vivo, mouse; conditions: MC903 topically every day; D2-D4
Experimental: as §1

[13] = system: TSLP; assay: TSLP RNA level (Q-PCR) in skin and organs after topical application of NR agonists; type: in vivo, mouse; conditions: increasing doses (MC903: 0.4, 1 or 4 nmoles per ear)

26,27-cyclo-22-ene-1α,24S-dihydroxyvitamin D3 [MC903]
serum IgE and IgG levels [1]: increased | TSLP RNA in treated dorsal skin ([2]; MC903 on shaved dorsal skin (1 cm^2), D2-D4): increased | TSLP RNA levels in treated right ear ([2]; MC903 topically every day on right ear of WT mice, D2, D3, D4, ethanol on left ear): increased in right ears, and further increased on D3 and D4 | TSLP transcripts in other organs (lung, thymus, salivary gland, tongue, colon, spleen, lymph node, liver) ([2]; MC903 topically on ears, D5): no increase | induction of TSLP in RXRαβep-/- skin [3]: severely reduced | skin inflammation in VDR-/- mice [4]: no AD-like skin inflammation | TSLP expression (Q-PCR) in skin of VDR CT mice ([4]; D4): strongly induced | TSLP expression (Q-PCR) in skin of VDR-/- mice ([4]; D4): not at all | TSLP expression (Q-PCR) in skin of VDRep-/- mutants ([4]; D4): weakly increased | ear inflammation in VDR CT mice ([4]; D17): AD-like inflammation was obvious | ear inflammation in VDRep-/- mice ([4]; D17): did not show any sign of inflammation | serum TSLP levels [5]: increased | eosinophils in ear-draining lymph nodes, liver and spleen ([6]; D16): increased number of eosinophils | blood eosinophils (differential blood cell counts) ([6]; ethanol-treated mice 204±134): 693±220 cells/μl | TSLP expression by immunohistochemistry in epidermis [7]: readily detected | BAL cell numbers ([8]; OVA model): higher BAL cell numbers | airway epithelium hypertrophy (lung sections) ([8]; OVA model): increased hypertrophy in airway epithelium | lung inflammatory infiltration (lung sections) ([8]; OVA model): higher perivascular and peribronchial lung inflammatory infiltrations; also recorded: enhanced airway inflammation | airway hyperresponsiveness (AHR), whole-body plethysmography ([8]; OVA sensitized and challenged): increased airway hyperresponsiveness | ear appearance ([9]; MC903 4 nmoles daily or 1α,25(OH)2D3 0.25 nmole every second day, from D5, D17): reddening and swelling, that worsened with time; also recorded: red, scaly, swollen and crusted | ear histology (hematoxylin/eosin) ([9]; MC903 4 nmoles daily, D17, 1α,25-(OH)2D3 0.25 nmole every other day, D18): epidermal hyperplasia and a heavy dermal cell infiltrate | CD11c+ dermal dendritic cells (IHC) ([9]; MC903-treated ears, D17): large increase | GR1-positive cells in dermis (IHC) ([9]; MC903-treated ears, D17): large number of positive cells | T lymphocytes (CD3+) in dermis (IHC) ([9]; MC903-treated ears, D17): Numerous | increase of mast cells in the dermis ([9]; MC903-treated ears, D17, Toluidin blue staining): 4 fold | TSLP transcripts in treated ears, long-term [10]: markedly increased | Th2-type cytokine transcripts (IL-4, IL-5, IL-13, IL-31, IL10 and IL-6) [10]: significantly increased | expression of Th1-type cytokine IFN-γ [10]: enhanced | expression of Th1-type cytokine TNF-β [10]: unchanged | hypercalcemia, overall health, weight loss [11]: No hypercalcemia or overall health impairment and weight loss | CYP24A1 transcripts in treated ear [12]: increased | dose dependence of TSLP transcripts [13]: dose-dependent increase
